Results: patent US4939175A, “Use of N,N-dimethyl-1-[1-(4-chlorophenyl)cyclobutyl]-3-methylbutylamine” (priority 1988, dated 1990)
Where two headings read alike, the source gives them in different places.

How the values were obtained:
[1] = system: inhibition of conditioned avoidance response induced by reserpine in rats; assay: Inhibition of conditioned avoidance response induced by reserpine in rats; format: in vivo, Std-Wistar male rats
Protocol: Effect of the test samples on the inhibition of conditioned avoidance response induced by reserpine in rats
Std-Wistar male rats (8 to 9 week age) weighing of 270 to 300 g were fed under the conditions of 23±2° C., 60±10% R.H. and artificial lighting from 7 AM to 7 PM for a week, and then subjected to the test.
The test was carried out by using a shuttle box. The shuttle box used herein was a rectangular box, which was equipped with a buzzer for conditioned stimulus at the upper part and grids of 2 mm in diameter, for non-conditioned stimulus, at intervals of 1 cm on the floor, and divided into two equal sized compartments by a hurdle of 5 cm in height.
The schedule for inducing the conditioned avoidance response was controlled by a computer, and all the observed results of avoidance or escape response were recorded automatically.
The avoidance condition was carried out as follows:
After the conditioned stimulus of the buzzer with sound signal for 5 seconds, the non-conditioned stimulus of the foot shock was given for 5 seconds to rats. Each stimulus was stopped immediately, if the rat jumped over the hurdle to the other compartment during the conditioned or non-conditioned stimulus.
The above-mentioned rats were put on the trials for 25 times. Then the rats were given reserpine (1 mg/kg, intraperitoneally). The rats were tested for 15 times at the time of 18 to 20 hours after the reserpine administration, and then they were divided into several groups ([…]).
The test sample was dissolved in distilled water and administered orally to each group at 24 to 26 hours after the reserpine administration. For reference, distilled water as control sample, and amitriptyline and amantadine as test drugs were used.
At one hour after the test sample administration, the rats were put on the trials for 25 times and the conditioned avoidance responce was compared between the control group (distilled water administration), the test compound-administered group and the test drug-administered groups.

[2] = system: depletion of dopamine induced by MPTP in mice whole brain; assay: animal or person; format: in vivo, SlC: ddy strain male mice; conditions: Mus musculus, po, 168 h, MPTP 50 mg/kg s.c., read-out: Percentage of the amount of dopamine in the treated group against the amount of dopamine in the non-treated group; for response vs control in vivo at 10 mg/kg: 10 mg/kg oral
[3] = system: re-uptake of ^3 H-dopamine; assay: Re-uptake of 3H-dopamine in vitro (synaptosomes, P2 fraction of whole brain); format: biochemical, Std: Wistar strain male rat; conditions: Experiment I, rat brain synaptosomes, 37° C., 20 minutes
Protocol: Effect of the test samples on the re-uptake of ^3 H-dopamine in vitro
P2 fraction was prepared from the whole brain of Std: Wistar strain male rat. […] The obtained mixture was incubated at 37° C. for 20 minutes and then subjected to the suction filtration with Whatman GF/B filter paper.
The obtained filter paper was put in a vial containing 10 ml of toluene type scintillator and its radioactivity was measured by means of liquid scintillation counter. The amount of the specific re-uptake of ^3 H-dopamine was obtained by subtracting the amount of re-uptake at 0° C. as blank.

[4] = system: depletion of norepinephrine induced by 6-hydroxydopamine in rat heart; assay: Depletion of norepinephrine induced by 6-hydroxydopamine in rat heart; format: in vivo, Std: Wistar male rats; conditions: 6-hydroxydopamine 20 mg/kg i.p., control 20 ± 4, non-treatment 425 ± 49, **p < 0.01
Protocol: Effect of the test samples on the depletion of norepinephrine induced by 6-hydroxydopamine in rat heart.
The test sample was administered orally to Std: Wistar male rats and after 30 minutes, 6-hydroxydopamine (20 mg/kg) was injected intraperitoneally.
At 16 hours after injection of 6-hydroxydopamine, the rats were killed. The whole heart was rapidly removed and homogenized in 0.05M perchloric acid with isoproterenol (10 mg/ml) as an internal standard. The homogenate was centrifuged and then the amount of norepinephrine in the supernatant was determined by means of high performance liquid chromatography with electrochemical detection.
Desipramine was used as the reference drug and distilled water was used as control sample.

[5] = system: depletion of serotonin induced by p-chloroamphetamine; assay: Depletion of serotonin (5-HT) induced by p-chloroamphetamine (whole brain); format: in vivo, SlC:ddy mice; conditions: p-chloroamphetamine 10 mg/kg i.p., control 48 ± 6, **p < 0.01
Protocol: Effect of the test samples on the depletion of serotonin (hereinafter referred to as "5-HT") induced by p-chloroamphetamine
The test sample was administered orally to SlC:ddy made mice and after 60 minutes, p-chloroamphetamine (10 mg/kg) was injected intraperitoneally.
At 6 hours later, the mice were decapitated. The whole brain was rapidly removed and homogenized in 0.06M perchloric acid with N-methylserotonin (10 μg/ml) as an internal standard. The homogenate was centrifuged and then the amount of 5-HT in the supernatant was determined by high performance liquid chromatography with electrochemical detection.
Amitriptyline was used as the reference drug and distilled water was used as control sample.

[6] = system: circling behavior in rats with unilateral substantia nigra lesions; assay: Circling behavior in rats with unilateral substantia nigra lesions; format: in vivo, Std: Wistar male rats; conditions: 2 hours after, control 0.1 ± 0.4, **p < 0.01
Protocol: Effect of the test samples on circling behavior in rats with unilateral substantia nigra lesions
Std: Wistar male rats (8 heads/group) were used. The rat with unilateral substantia nigra lesions was made by injecting 8 μg/4 μl of 6-hydroxydopamine to the right side of substantia nigra.
The test sample was administered orally to the rat. At 2 hours later, the number of circling behavior per 10 minutes was counted.
Amantadine was used as the reference drug and distilled water was used as control sample.

[7] = system: sleeping time induced by thiopental; assay: Sleeping time induced by thiopental; format: in vivo, Std: Wistar male rats; conditions: thiopental 40 mg/kg i.v., control 500.8 ± 12.0, **p < 0.01
Protocol: Effect of the test samples on the sleeping time induced by thiopental
The test sample was administered orally to Std: Wistar male rats, and at 60 minutes later, sodium thiopental (40 mg/kg) was injected intravenously.
The duration of sleeping time was determined as the time period between the injection of thiopental and return of the righting reflex.
Distilled water was used as control sample.

[8] = Acute toxicity, oral, mice; design: species or system SlC:ddy male mice; conditions: mouse, in vivo, read-out: Number of dead mice per 10 mice
Protocol: SlC:ddy male mice (10 heads/group) were used.
After the oral administration of the test smaple, desipramine was used as the test drug, to the mice, the number of the dead mice was counted at 0.5, 1, 2, 4, 18 and 24 hours respectively after the oral administration.

In the case of `CC(C)CC(N(C)C)C1(c2ccc(Cl)cc2)CCC1.Cl` (stereo not shown) [Test compound, N,N-dimethyl-1-[1-(4-chlorophenyl)cyclobutyl]3-methylbutylamine hydrochloride], the “Conditioned avoidance response 1 hour after administration of the test sample” value ([1]; 10 mg/kg oral, reserpine 1 mg/kg, control 2) is reported as 82%, the “Conditioned avoidance response before administration of reserpine” value ([1]; baseline before test sample, 10 mg/kg group) is reported as 90% and the “Conditioned avoidance response 18 to 20 hours after administration of reserpine” value ([1]; reserpine 1 mg/kg i.p., before test sample, 10 mg/kg group) is reported as 2%. For the same compound, the response vs control in vivo at 10 mg/kg ([2]; Experiment I, control 71 ± 11, *P < 0.05, **P < 0.01) was 83 ± 12%, the response vs control in vivo at 30 mg/kg ([2]; Experiment I, 30 mg/kg oral, control 71 ± 11, *P < 0.05, **P < 0.01) was 85 ± 6% and the response vs control in vivo at 10 mg/kg ([2]; Experiment II, control 88 ± 20, *P < 0.05) was 111 ± 8%. For the same compound, the IC50 [3] was 2000 nM, the “Amount of Norepinephrine” value ([4]; 0.625 mg/kg oral) was 169 ± 34 ng/g and the “Amount of Norepinephrine” value ([4]; 1.25 mg/kg oral) was 247 ± 49 ng/g. The “Amount of Norepinephrine” value ([4]; 2.5 mg/kg oral) was 306 ± 27 ng/g, the “Percentages of the amount of 5-HT in the treated group against the amount of 5-HT in the non-treated group” value ([5]; 3 mg/kg oral) was 64 ± 8% and the “Percentages of the amount of 5-HT in the treated group against the amount of 5-HT in the non-treated group” value ([5]; 10 mg/kg oral) was 103 ± 10%. The “Number of circling behavior per 10 min.” value ([6]; 3 mg/kg oral) was 3.0 ± 2.9 per 10 min, the “Number of circling behavior per 10 min.” value ([6]; 10 mg/kg oral) was 5.1 ± 4.4 per 10 min and the Sleeping time ([7]; 10 mg/kg oral) was 345.6 ± 82.2 s. It also gave a Sleeping time ([7]; 30 mg/kg oral) of 338.5 ± 43.7 s, a mortality at 0.5 h ([8]; 200 mg/kg oral) of 0% and a mortality at 1 h ([8]; 200 mg/kg oral) of 10%. The mortality at 2 h ([8]; 200 mg/kg oral) was 10%, the mortality at 4 h ([8]; 200 mg/kg oral) was 10% and the mortality at 18 h ([8]; 200 mg/kg oral) was 20%. The mortality at 24 h ([8]; 200 mg/kg oral) was 20%, the mortality at 0.5 h ([8]; 800 mg/kg oral) was 40% and the mortality at 1 h ([8]; 800 mg/kg oral) was 50%. The mortality at 2 h ([8]; 800 mg/kg oral) was 50%, the mortality at 4 h ([8]; 800 mg/kg oral) was 60% and the mortality at 18 h ([8]; 800 mg/kg oral) was 90%. The mortality at 24 h ([8]; 800 mg/kg oral) was 90%.
